Data from patent publication US20220017478A1, “2-BENZOYLAMINOBENZAMIDE DERIVATIVES AS BCL-3 INHIBITORS” (University College Cardiff Consultants Limited, priority 2013, published 2022).
Where two headings read alike, the source gives them in different places.

How the values were obtained:
[1] = Solubility in commonly used solvents and PBS; assay type: physicochemical
Protocol: We established that the solubility of Compound 1a in most commonly used solvents is very low (Table 2) which represents an issue for biological evaluation. Therefore a hydrochloric salt of Compound 1a was synthesised and the solubility was analyzed. The obtained salt had improved solubility in water and methanol (Table 2), however it was not soluble (<0.1 g/100 ml) in Phosphate Buffered Saline (PBS). PBS is a water-based salt solution containing sodium chloride, sodium phosphate, potassium chloride and potassium phosphate, while the buffer's phosphate groups help to maintain a constant pH. PBS is non-toxic and is commonly used as an isotonic buffered solution for cell-based assays and animal studies.

[2] = Cell Titre Blue viability assay, MCF-10A; assay type: cell-based, human; settings: human, MCF-10A cells, 1 mM, read-out: cell viability compared to DMSO control (100%)
Protocol: (§4) The viability of cells at experimental endpoints for particular assays was determined using the Cell Titre Blue reagent (Promega, Southampton, UK). This reagent measures the cellular metabolic activity using resazurin as an indicator dye. Viable cells, therefore metabolically active, will reduce resazurin into highly fluorescent resofurin. The resulting fluorescence levels are measured and indicate cell viability.
(§5) Cells were plated at low confluency into 96 well plates in 100 μl of complete growth media in triplicates and were incubated at 37° C. in 5% CO2 for the desired test exposure period. For each 100 μl of media in 96 well plates, 20 μl Cell Titre Blue reagent was added followed by incubation for an hour at 37° C. in 5% CO2. Fluorescence was then measured by setting excitation/emission wavelengths to 560/590 nm on a Flurostar Optima plate reader (BMG tabtech, Bucks, UK).
(§6) To compare the toxicity in tumorigenic as well as in non-tumorigenic breast cancer cells, we selected MCF-10A as a non-tumorigenic human breast cancer cell line and MDA-MB-231 and SKBR3 as cell models of tumorigenic human breast cancer cell line.
(§7) Cell toxicity was evaluated using the Cell Titre Blue viability assay over a range of molarities for 24 hrs.

MCF-10A cells = test: Cell Titre Blue viability assay, MCF-10A; assay type: cell-based, human; settings: Homo sapiens, 24 hrs, extrapolated with GraphPad, read-out: IC50 cell viability, extrapolated from the dose-response curve
Protocol: as §4, §5, §6, §7

NF-κB activity [3] = test: NF-κB luciferase reporter assay in HEK-293 cells overexpressing Bcl-3; assay type: cell-based; settings: Homo sapiens, HEK293
Protocol: (§1) For NF-κB luciferase assays, cells were seeded into clear bottom black 96-well plates (Corning Inc., Lowell, US) in antibiotic free culture media in appropriate density. After 24 hrs, cells were transfected with 10 ng of 3×κB luciferase plasmid and 10 ng of pcDNA3.1-Lacl plasmid per well. Empty pcDNA3.1 plasmid was also included to normalize the total weight of DNA transfected to 100 ng. For positive and negative controls respectively, 10 ng of pGL3control or pGL3basic were transfected in place of 3×KB luciferase plasmid. Transfection was carried out using Lipofectamine LTX reagents (Invitrogen, Paisley, UK).
(§2) After 48 hrs post-transfection with luciferase reporter plasmid, the media was aspirated and cells were lyzed using 50 μl/well of Glo-lysis buffer (Promega, Southampton, UK). The plate was left on a rocker for 20 min to facilitate complete cell lysis. […] Subsequently, 30 μl/well of Bright-Glo luciferase substrate (Promega, Southampton, UK) was added to the original plate and asses immediately for luminescence activity. The luminescence produced from either reaction was read using a Flurostar Optima plate reader (BMG tabtech, Bucks, UK).
(§3) The effect of Compound 1a on NF-κB activity was determined by NF-κB luciferase assay in MDA-MB-231 and HEK-293 cells overexpressing Bcl-3 and HEK-293 cells overexpressing p52. […]

NF-κB activity [4] = test: NF-κB luciferase reporter assay in HEK-293 p52 overexpressing cells; assay type: cell-based; settings: Homo sapiens, HEK293
Protocol: as §1, §2, §3

O=C(Nc1ccccc1C(=O)NCCN1CCOCC1)c1ccccc1F [Compound 1a, 2-[(2-fluorobenzoyl)amino]-N-(2-morpholin-4-ylethyl)benzamide]
Solubility ([1]; DMSO): 3.71 g/100 ml
Solubility ([1]; Dichloromethane): 2.91 g/100 ml
Solubility ([1]; Diethyl ether): 0.09 g/100 ml
Solubility ([1]; Ethanol): 0.09 g/100 ml
Solubility ([1]; Ethyl acetate): 0.34 g/100 ml
Solubility ([1]; Methanol): 0.20 g/100 ml
Solubility ([1]; water, read-out: Solubility): < 100 µg/mL
viability at 24 h, 1000 µM [2]: 96%
IC50 (MCF-10A cells): 14900 µM
IC50 (NF-κB activity [3]): 0.16 µM
IC50 (NF-κB activity [4]): 0.211 µM
